According to patent US20260365671A1, “HETEROCYCLIC COMPOUND” (Takeda Pharmaceutical Company Limited, priority 2022, published 2026):

What was measured:
NLRP3 inflammasome = molecular target: T1, NLRP3 inflammasome (Homo sapiens, UniProt Q96P20); assay: IL-1β TR-FRET assay (THP-1 cells differentiated to macrophages with IFN-γ, LPS primed, ATP activated; HTRF); assay type: cell-based; conditions: THP-1 macrophages, 50 ng/mL LPS priming, compound 30 min, 20 mM ATP 2 hours
T1 construct: IL-1beta HTRF
Summary of the method: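 THP-1 cells differentiated with 25 ng/mL IFN-γ for 24 h, primed with 50 ng/mL LPS in serum-free medium for 24 h, then treated with compounds for 30 min before 20 mM ATP activation for 2 h at 37 °C. Secreted IL-1β quantified by HTRF; IC50 from logistic fit of % inhibition.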

NF-κB pathway = assay: TNF-α assay (THP-1 cells differentiated to macrophages with IFN-γ, NF-κB pathway activated with LPS; ELISA); assay type: cell-based, Human; conditions: Homo sapiens, THP-1, THP-1 macrophages, compound 30 min, 50 ng/mL LPS 3 hours
Summary of the method: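 THP-1 cells differentiated with 25 ng/mL IFN-γ for 24 h, then 30 min with compounds in serum-free medium. NF-κB activated with 50 ng/mL LPS, 3 h at 37 °C. Supernatant TNF-α by ELISA; IC50 from four-parameter logistic fit of % inhibition.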

T1 sequence (Q96P20 whole entry): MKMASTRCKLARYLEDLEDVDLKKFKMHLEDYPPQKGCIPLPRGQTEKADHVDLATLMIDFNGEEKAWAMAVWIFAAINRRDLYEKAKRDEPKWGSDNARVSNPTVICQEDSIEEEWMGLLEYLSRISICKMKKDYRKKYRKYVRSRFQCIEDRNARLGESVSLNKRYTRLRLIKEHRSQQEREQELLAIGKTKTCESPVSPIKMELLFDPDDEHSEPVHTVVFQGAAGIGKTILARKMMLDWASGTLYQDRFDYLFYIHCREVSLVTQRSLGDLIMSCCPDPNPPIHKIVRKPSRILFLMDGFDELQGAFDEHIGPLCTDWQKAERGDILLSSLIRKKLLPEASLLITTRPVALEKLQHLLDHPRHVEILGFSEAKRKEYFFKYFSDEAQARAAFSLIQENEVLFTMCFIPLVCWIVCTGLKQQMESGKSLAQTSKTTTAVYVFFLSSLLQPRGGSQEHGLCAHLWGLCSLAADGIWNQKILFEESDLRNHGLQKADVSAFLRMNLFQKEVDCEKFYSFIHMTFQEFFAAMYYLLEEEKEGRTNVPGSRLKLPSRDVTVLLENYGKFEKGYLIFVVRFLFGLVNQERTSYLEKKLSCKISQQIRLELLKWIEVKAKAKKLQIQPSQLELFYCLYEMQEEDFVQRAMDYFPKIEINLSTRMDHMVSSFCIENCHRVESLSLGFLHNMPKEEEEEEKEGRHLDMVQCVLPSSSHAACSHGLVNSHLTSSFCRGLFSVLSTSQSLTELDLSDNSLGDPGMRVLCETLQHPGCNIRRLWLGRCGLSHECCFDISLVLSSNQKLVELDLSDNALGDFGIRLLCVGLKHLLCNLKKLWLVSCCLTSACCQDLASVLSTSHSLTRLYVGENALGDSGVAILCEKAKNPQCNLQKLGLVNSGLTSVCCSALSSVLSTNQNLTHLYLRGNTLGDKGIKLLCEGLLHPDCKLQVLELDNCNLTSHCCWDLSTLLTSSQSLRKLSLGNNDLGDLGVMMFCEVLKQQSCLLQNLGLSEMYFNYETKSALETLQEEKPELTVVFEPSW

Cc1cc(C)c(-n2cc3sc(NC4CCN(C(=O)C(C)(C)O)C4)nc3n2)c(O)c1 (centres unmarked) [Example 102, 2-hydroxy-1-(3-{[2-(2-hydroxy-4,6-dimethylphenyl)-2H-pyrazolo[3,4-d][1,3]thiazol-5-yl]amino}pyrrolidin-1-yl)-2-methylpropan-1-one]
IC50 (NLRP3 inflammasome): 280 nM
IC50 (NF-κB pathway): > 30000 nM

Cc1cc(C)c(-n2cc3sc(NC4CCN(C)C4=O)nc3n2)c(O)c1 (centres unmarked) [Example 103, 3-{[2-(2-hydroxy-4,6-dimethylphenyl)-2H-pyrazolo[3,4-d][1,3]thiazol-5-yl]amino}-1-methylpyrrolidin-2-one]
IC50 (NLRP3 inflammasome): 810 nM
IC50 (NF-κB pathway): > 30000 nM

Cc1cc(OC(F)F)cc(O)c1-n1cc2sc(N[C@@H]3C[C@@H](F)CN(C)C3)nc2n1 [Example 107, 5-(difluoromethoxy)-2-(5-{[(3R,5R)-5-fluoro-1-methylpiperidin-3-yl]amino}-2H-pyrazolo[3,4-d][1,3]thiazol-2-yl)-3-methylphenol]
IC50 (NLRP3 inflammasome): 75 nM
IC50 (NF-κB pathway): > 30000 nM

CC(=O)N1CCCC(Nc2nc3nn(-c4c(C)cc(C)cc4O)cc3s2)C1 (centres unmarked) [Example 108, 1-(3-{[2-(2-hydroxy-4,6-dimethylphenyl)-2H-pyrazolo[3,4-d][1,3]thiazol-5-yl]amino}piperidin-1-yl)ethan-1-one]
IC50 (NLRP3 inflammasome): 610 nM
IC50 (NF-κB pathway): > 30000 nM

CCC(=O)N1CCCC(Nc2nc3nn(-c4c(C)cc(C)cc4O)cc3s2)C1 (centres unmarked) [Example 109, 1-(3-{[2-(2-hydroxy-4,6-dimethylphenyl)-2H-pyrazolo[3,4-d][1,3]thiazol-5-yl]amino}piperidin-1-yl)propan-1-one]
IC50 (NLRP3 inflammasome): 590 nM
IC50 (NF-κB pathway): > 30000 nM

COC(=O)N1CCCC(Nc2nc3nn(-c4c(C)cc(C)cc4O)cc3s2)C1 (centres unmarked) [Example 110, methyl 3-{[2-(2-hydroxy-4,6-dimethylphenyl)-2H-pyrazolo[3,4-d][1,3]thiazol-5-yl]amino}piperidine-1-carboxylate]
IC50 (NLRP3 inflammasome): 990 nM
IC50 (NF-κB pathway): > 30000 nM

CNC(=O)N1CCCC(Nc2nc3nn(-c4c(C)cc(C)cc4O)cc3s2)C1 (centres unmarked) [Example 111, 3-{[2-(2-hydroxy-4,6-dimethylphenyl) 2H-pyrazolo[3,4-d][1,3]thiazol-5-yl]amino}-N-methyl-piperidine-1-carboxamide]
IC50 (NLRP3 inflammasome): 810 nM
IC50 (NF-κB pathway): > 30000 nM

Cc1cc(C)c(-n2cc3sc(NC4CCCN(S(C)(=O)=O)C4)nc3n2)c(O)c1 (centres unmarked) [Example 112, 2-(5-{[1-(methanesulfonyl)piperidin-3-yl]amino}-2H-pyrazolo[3,4-d][1,3]thiazol-2-yl)-3,5-dimethylphenol]
IC50 (NLRP3 inflammasome): 550 nM
IC50 (NF-κB pathway): > 10000 nM

Cc1cc(C)c(-n2cc3sc(NC4CCCN(C(=O)CC(F)F)C4)nc3n2)c(O)c1 (centres unmarked) [Example 113, 3,3-difluoro-1-(3-{[2-(2-hydroxy-4,6-dimethylphenyl)-2H-pyrazolo[3,4-d][1,3]thiazol-5-yl]amino}piperidin-1-yl)propan-1-one]
IC50 (NLRP3 inflammasome): 510 nM
IC50 (NF-κB pathway): > 30000 nM

COC(C)(C)CNc1nc2nn(-c3c(C)cc(C)cc3O)cc2s1 [Example 114, 2-{5-[(2-methoxy-2-methylpropyl)amino]-2H-pyrazolo[3,4-d][1,3]thiazol-2-yl}-3,5-dimethylphenol]
IC50 (NLRP3 inflammasome): 1000 nM
IC50 (NF-κB pathway): > 10000 nM

Cc1cc(C)c(-n2cc3sc(NC4CCC(=O)N(C)C4)nc3n2)c(O)c1 (centres unmarked) [Example 115, 5-{[2-(2-hydroxy-4,6-dimethylphenyl)-2H-pyrazolo[3,4-d][1,3]thiazol-5-yl]amino}-1-methylpiperidin-2-one]
IC50 (NLRP3 inflammasome): 490 nM
IC50 (NF-κB pathway): > 30000 nM

Cc1cc(C)c(-n2cc3sc(NC[C@@H]4CCCO4)nc3n2)c(O)c1 [Example 116, 3,5-dimethyl-2-[5-({[(2S)-oxolan-2-yl]methyl}amino)-2H-pyrazolo[3,4-d][1,3]thiazol-2-yl]phenol]
IC50 (NLRP3 inflammasome): 1100 nM
IC50 (NF-κB pathway): > 30000 nM

Cc1cc(C)c(-n2cc3sc(NC[C@H]4CCCO4)nc3n2)c(O)c1 [Example 117, 3,5-dimethyl-2-[5-({[(2R)-oxolan-2-yl]methyl}amino)-2H-pyrazolo[3,4-d][1,3]thiazol-2-yl]phenol]
IC50 (NLRP3 inflammasome): 1300 nM
IC50 (NF-κB pathway): > 10000 nM
